Measurements from the supplement of paper PMC11208160.

Experiment: recombinant UMI read abundance after kanamycin selection (control-corrected) (log10(CPM+1)); higher = more efficient recombination; extreme values may be limits of the assay; sequences stand for … in AGTGCAGAGAAAATCGGCCAGTTTTCTCTGCCTGCAGTCCGCATGCCGTGGGACCCCTTGGGTTCTAACCTGTTGCCTAGATTTATGCAGCGGACTGCCTTTCTCCCAAAGTGATAAACCGG…AGGTTGGTTTCACT; site = the 11-nt donor
Method in brief: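 Values, expressed as log10(CPM+1), derive from recombinant UMI counts converted to CPM, averaged across replicates and scaled by control-derived factors. Plating was with IPTG (0.07 mM) plus kanamycin or unselected, two replicates each. The screen pooled donor and donor-binding-loop pairs for the IS621 bridge recombinase in Escherichia coli.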
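Note: IS621 bridge recombinase in Escherichia coli cells against a fixed T5 target plasmid.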

Row | Sequence | recombinant UMI read abundance (log10)
1 | CCAATCGCATGGACCGGTTTTCCCGGTAATCCGTATTTGCA (site CCAATCGCTTG) | 0
2 | CCAATTACATGGACCGGTTTTCCCGGTAATCCGTATTTGCC (site CCAATTACTGG) | 0
3 | CCACACACATGGACCGGTTTTCCCGGTAATCCGTATTTGCA (site CCACACACTTG) | 2.07
4 | CCACCCTCATGGACCGGTTTTCCCGGTAATCCGTATTTGCT (site CCACCCTCTAG) | 1.95
5 | CCACGGACATGGACCGGTTTTCCCGGTAATCCGTATTTGGT (site CCACGGACTAC) | 0.0137
6 | CCACGGCCATGGACCGGTTTTCCCGGTAATCCGTATTTGTA (site CCACGGCCTTA) | 0
7 | CCACGTCCATGGACCGGTTTTCCCGGTAATCCGTATTTGGT (site CCACGTCCTAC) | 0.0291
8 | CCACTTGCATGGACCGGTTTTCCCGGTAATCCGTATTTGTG (site CCACTTGCTCA) | 0.358
9 | CCAGATGCATGGACCGGTTTTCCCGGTAATCCGTATTTGCG (site CCAGATGCTCG) | 1.59
10 | CCAGGATCATGGACCGGTTTTCCCGGTAATCCGTATTTGAT (site CCAGGATCTAT) | 0
11 | CCAGGCGCATGGACCGGTTTTCCCGGTAATCCGTATTTGAT (site CCAGGAGCTAT) | 1.06
12 | CCAGGCGCATGGACCGGTTTTCCCGGTAATCCGTATTTGAT (site CCAGGCGCTAT) | 1.24
13 | CCAGGCGCATGGACCGGTTTTCCCGGTAATCCGTATTTGAT (site CCAGGGGCTAT) | 0.00758
14 | CCAGGCGCATGGACCGGTTTTCCCGGTAATCCGTATTTGAT (site CCAGGTGCTAT) | 0.707
15 | CCAGGGGCATGGACCGGTTTTCCCGGTAATCCGTATTTGAT (site CCAGGAGCTAT) | 0.735
16 | CCAGGGGCATGGACCGGTTTTCCCGGTAATCCGTATTTGAT (site CCAGGCGCTAT) | 0.972
17 | CCAGGGGCATGGACCGGTTTTCCCGGTAATCCGTATTTGAT (site CCAGGGGCTAT) | 1.04
18 | CCAGGGGCATGGACCGGTTTTCCCGGTAATCCGTATTTGAT (site CCAGGTGCTAT) | 0.888
19 | CCAGTACCATGGACCGGTTTTCCCGGTAATCCGTATTTGCA (site ACAGTATCTTG) | 0
20 | CCAGTACCATGGACCGGTTTTCCCGGTAATCCGTATTTGCA (site CCAGTACCTTG) | 0
21 | CCAGTATCATGGACCGGTTTTCCCGGTAATCCGTATTTGAA (site ACAGTATCTTG) | 0.128
22 | CCAGTATCATGGACCGGTTTTCCCGGTAATCCGTATTTGAA (site CCAGTATCTTT) | 1.05
23 | CCAGTATCATGGACCGGTTTTCCCGGTAATCCGTATTTGAA (site CTAGTATCTGT) | 0
24 | CCAGTATCATGGACCGGTTTTCCCGGTAATCCGTATTTGCC (site ACAGTATCTTG) | 0.0067
25 | CCAGTATCATGGACCGGTTTTCCCGGTAATCCGTATTTGCC (site CCAGTATCTGG) | 1.44

Row | Sequence | recombinant UMI read abundance (log10)
26 | CCAGTATCATGGACCGGTTTTCCCGGTAATCCGTATTTGCC (site CTAGTATCTGT) | 0
27 | CCAGTCACATGGACCGGTTTTCCCGGTAATCCGTATTTGGA (site CCAGTCACTTC) | 0.00572
28 | CCAGTGTCATGGACCGGTTTTCCCGGTAATCCGTATTTGCA (site ACAGTATCTTG) | 0
29 | CCAGTGTCATGGACCGGTTTTCCCGGTAATCCGTATTTGCA (site CCAGTGTCTTG) | 1.5
30 | CCAGTTTCATGGACCGGTTTTCCCGGTAATCCGTATTTGAC (site CCAGTTTCTGT) | 0.759
31 | CCAGTTTCATGGACCGGTTTTCCCGGTAATCCGTATTTGAC (site CTAGTATCTGT) | 0
32 | CCATAAACATGGACCGGTTTTCCCGGTAATCCGTATTTGAA (site CCATAAACTTT) | 1.22
33 | CCATACTCATGGACCGGTTTTCCCGGTAATCCGTATTTGCA (site ACATACTCTTG) | 0.648
34 | CCATACTCATGGACCGGTTTTCCCGGTAATCCGTATTTGCA (site CCATACTCTTG) | 2.11
35 | CCATACTCATGGACCGGTTTTCCCGGTAATCCGTATTTGCA (site GCATACTCTTG) | 0
36 | CCATACTCATGGACCGGTTTTCCCGGTAATCCGTATTTGCA (site TCATACTCTTG) | 0
37 | CCATACTCATGGACCGGTTTTCCCGGTAATCCGTATTTGGC (site CCATACTCTGC) | 0.585
38 | CCATAGCCATGGACCGGTTTTCCCGGTAATCCGTATTTGCC (site CCATAGCCTGG) | 0
39 | CCATAGCCATGGACCGGTTTTCCCGGTAATCCGTATTTGCC (site CCCTAGCCTGG) | 0
40 | CCATAGCCATGGACCGGTTTTCCCGGTAATCCGTATTTGCC (site CCGTAGCCTGG) | 0
41 | CCATAGCCATGGACCGGTTTTCCCGGTAATCCGTATTTGCC (site CCTTAGCCTGG) | 0
42 | CCATAGTCATGGACCGGTTTTCCCGGTAATCCGTATTTGAA (site CCATAGTCTTT) | 1.86
43 | CCATATGCATGGACCGGTTTTCCCGGTAATCCGTATTTGCA (site CCATATGCTTG) | 0.198
44 | CCATCCTCATGGACCGGTTTTCCCGGTAATCCGTATTTGGT (site CCATCCTCTAC) | 1.38
45 | CCATCTACATGGACCGGTTTTCCCGGTAATCCGTATTTGTG (site ACATCTACTCA) | 0.0369
46 | CCATCTACATGGACCGGTTTTCCCGGTAATCCGTATTTGTG (site CCATCTACTCA) | 0.0215
47 | CCATCTACATGGACCGGTTTTCCCGGTAATCCGTATTTGTG (site GCATCTACTCA) | 0.00588
48 | CCATCTACATGGACCGGTTTTCCCGGTAATCCGTATTTGTG (site TCATCTACTCA) | 0
49 | CCATCTGCATGGACCGGTTTTCCCGGTAATCCGTATTTGAA (site CCATCTGCTTT) | 1.91
50 | CCATGGGCATGGACCGGTTTTCCCGGTAATCCGTATTTGAG (site CCATGGGCTCT) | 0.633

Row | Sequence | recombinant UMI read abundance (log10)
51 | CCATGGTCATGGACCGGTTTTCCCGGTAATCCGTATTTGAA (site CCATGGTCTTT) | 0.724
52 | CCATGTGCATGGACCGGTTTTCCCGGTAATCCGTATTTGAA (site CCATGTGCTTT) | 0.336
53 | CCCACCCCATGGACCGGTTTTCCCGGTAATCCGTATTTGGC (site CCCACCCCTGC) | 0
54 | CCCACTACATGGACCGGTTTTCCCGGTAATCCGTATTTGTT (site CCCACTACTAA) | 0.141
55 | CCCAGTCCATGGACCGGTTTTCCCGGTAATCCGTATTTGCA (site CCCAGTCCTTG) | 0
56 | CCCAGTCCATGGACCGGTTTTCCCGGTAATCCGTATTTGCA (site CCCCGTCCTTG) | 0
57 | CCCAGTCCATGGACCGGTTTTCCCGGTAATCCGTATTTGCA (site CCCGGTCCTTG) | 0.00873
58 | CCCAGTCCATGGACCGGTTTTCCCGGTAATCCGTATTTGCA (site CCCTGTCCTTG) | 0.0169
59 | CCCATATCATGGACCGGTTTTCCCGGTAATCCGTATTTGAT (site CCCATATCTAT) | 0
60 | CCCATATCATGGACCGGTTTTCCCGGTAATCCGTATTTGTA (site CCCATATCTAA) | 0.0053
61 | CCCATATCATGGACCGGTTTTCCCGGTAATCCGTATTTGTA (site CCCATATCTCA) | 0.0171
62 | CCCATATCATGGACCGGTTTTCCCGGTAATCCGTATTTGTA (site CCCATATCTGA) | 0
63 | CCCATATCATGGACCGGTTTTCCCGGTAATCCGTATTTGTA (site CCCATATCTTA) | 0.903
64 | CCCATATCATGGACCGGTTTTCCCGGTAATCCGTATTTGTC (site ACCATATCTGA) | 0
65 | CCCATATCATGGACCGGTTTTCCCGGTAATCCGTATTTGTC (site CACATATCTGA) | 0
66 | CCCATATCATGGACCGGTTTTCCCGGTAATCCGTATTTGTC (site CCAATATCTGA) | 0
67 | CCCATATCATGGACCGGTTTTCCCGGTAATCCGTATTTGTC (site CCCAAATCTGA) | 0
68 | CCCATATCATGGACCGGTTTTCCCGGTAATCCGTATTTGTC (site CCCACATCTGA) | 0
69 | CCCATATCATGGACCGGTTTTCCCGGTAATCCGTATTTGTC (site CCCAGATCTGA) | 0
70 | CCCATATCATGGACCGGTTTTCCCGGTAATCCGTATTTGTC (site CCCATAACTGA) | 0
71 | CCCATATCATGGACCGGTTTTCCCGGTAATCCGTATTTGTC (site CCCATACCTGA) | 0.34
72 | CCCATATCATGGACCGGTTTTCCCGGTAATCCGTATTTGTC (site CCCATAGCTGA) | 0
73 | CCCATATCATGGACCGGTTTTCCCGGTAATCCGTATTTGTC (site CCCATATCTAA) | 0.00469
74 | CCCATATCATGGACCGGTTTTCCCGGTAATCCGTATTTGTC (site CCCATATCTCA) | 0
75 | CCCATATCATGGACCGGTTTTCCCGGTAATCCGTATTTGTC (site CCCATATCTGA) | 0.747
